# Values of other authors in patent publication US7261907B2, “Compositions for the treatment of neurological disorders” (priority 2001, dated 2007).
# Counter-ions that a name gives are not always drawn.
# System: nicotine and cocaine addiction
# Conditions: in vivo
smiles,measurement,value
CC(NC(C)(C)C)C(=O)c1cccc(Cl)c1 (stereo not shown) [bupropion hydrochloride],effectiveness in treating nicotine and cocaine addiction,moderately effective
